This assay has as its target T1, GLIC (Gloeobacter violaceus, UniProt Q7NDN8, N194C).
T1 sequence (Q7NDN8 44-359 N194C): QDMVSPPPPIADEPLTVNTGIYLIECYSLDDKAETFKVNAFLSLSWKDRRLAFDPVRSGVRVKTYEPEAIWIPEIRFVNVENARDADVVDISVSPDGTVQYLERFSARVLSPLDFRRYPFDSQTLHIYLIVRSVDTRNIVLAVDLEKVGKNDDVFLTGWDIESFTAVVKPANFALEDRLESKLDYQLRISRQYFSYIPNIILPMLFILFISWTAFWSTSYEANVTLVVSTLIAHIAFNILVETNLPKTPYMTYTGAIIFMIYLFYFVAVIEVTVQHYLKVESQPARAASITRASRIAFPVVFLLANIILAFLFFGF
The experiment in a line: two-electrode voltage clamp in Xenopus oocytes at EC20. It counts as cell-based.

The structures appear in SMILES notation.

The compound `CNC1(c2ccccc2Cl)CCCCC1=O` (stereo not shown) [ketamine] gave an IC50 of 110 µM.

The term IC50 denotes the concentration that gives 50% inhibition. A high value points to a need for much substance.
